Assay results: patent publication US9198896B2 (priority 2006, dated 2015)
Like-named read-outs stand apart in the source and are kept apart here. Marks after values point to notes of the source that are not given here.

Key:
Fertility study = conditions: oral or intravenous, dose and schedule as chronic toxicity test
[1] = rats
Experimental: (§1) Long-term (chronic) toxicity study: Mode of treatment and dilution by either water or normal saline were identical to acute toxicity study. Chronic toxicity study was made with four species of animals: mice, rat, rabbit and dog.
Rats. For experiment with these animals, 4 batches of rats were used per mode of treatment. Each batch contained 5 rats either male or female weighing 75-80 g per animal. […] Then, the rats were injected for 3 cycles; one cycle consisted of injections for two consecutive days followed by a rest of 1 day.
(§2) Total number of animals in each group including control and different modes of treatment: 6 (mice), 5 (rats) and 4 (rabbits). Each set of experiment was repeated 4 times for mice and rats and for rabbits 2 times respectively. […] In Table 3, αWeight of animals for mice and rats in gm and for rabbit in Kg.
Details are described in the Tables.

Teratogenicity study = assay type: in vivo, mice; conditions: treatment (oral and intravenous) from conception for 3 weeks
Experimental: Teratogenicity: For this test, mating was performed between mice as mentioned above in the case of fertility studies. […] But, as soon as they conceived, as indicated by vaginal plug formation, the treatment (oral and intravenous) started and continued for 3 weeks in a similar fashion for chronic toxicity studies. […] These litters also grew up healthy with no signs of abnormality. Healthy litters were born again when mating was performed among these animals.

[2] = Biochemical tests of blood/sera of rats after long-term treatment; assay type: in vivo, rat; conditions: 1 week after long-term treatment
[3] = mice, 1 day: oral 2 g, subcutaneous 1 g, intravenous 0.3 g/kg; observed up to 90 days
[4] = system: ascites sarcoma 180 cells; conditions: Együd and Szent-Györgyi, 1968; cited from earlier work
EAC cells [5] = assay: Increase in body weight of EAC cell-inoculated mice; assay type: in vivo
[6] = Pharmacokinetics, repeat oral dose study; assay type: in vivo; conditions: mice; for V / k / half-life at 30 days: oral 100 mg/kg body wt./day; for half-life at 30 days: mouse, whole blood, po, 100 mg/kg, read-out: t½ (converted)
EAC cells [7] = assay: Increase in body weight of EAC cell-inoculated mice; assay type: in vivo; conditions: Table 10
Experimental: Increase in body weight: For this experiment, mice were weighed periodically during and after the therapy. The results are expressed as percentage increase in the body weight using the following relationship: percent increase equals
Ehrlich ascites carcinoma bearing mice were treated intraperitonially with different drug combinations in normal saline to observe their effect on body weight (table 10) and life span (table 11). Mice in the control group were similarly treated intraperitonially only with normal saline.
The day on which 10^5 EAC cells were inoculated into each mouse was considered as day 0. The treatment started from day 3. […] 6 animals received a particular mode of treatment. Control group received only normal saline. […] Each set of experiment was repeated 4 times.

[8] = both, rat, in vivo, 6 weeks
EAC cells [9] = assay: Increase in life span study of EAC cell-inoculated mice; assay type: in vivo; conditions: 14 days from day 3
Experimental: Increase in life span study. For increase in life span study (ILS), testing was evaluated by calculating the median survival time (MST) of the treated (T) and control (C) groups and expressed as ILS value [(T/C−1)×100].
The treatment started from day 3. The amount of each compound indicated in the parentheses is the amount administered per kg body weight per day.
The day on which 10^5 EAC cells were inoculated into each mouse was considered as day 0. The treatment started from day 3. […] 15 animals received a particular mode of treatment. Control group received only normal saline. […] Each set of experiment was repeated 4 times.

[10] = Long-term (chronic) toxicity study, mice; conditions: multiple dose, observed up to 90 days after treatment
Description: as §1
Mice. For experiment with these animals, 4 batches of mice were used per mode of treatment. Each batch contained 6 animals either male or female weighing 18-25 g. […] In all the cases, control group received water or normal saline in respective manner.
as §2

[11] = Histological studies with mice; assay type: in vivo; conditions: oral 0.5 gm/kg once a day for 10 weeks
Description: After end of the treatment, the mice were killed, and several organs were excised and processed for histological studies. Bone marrow cells were taken from the marrow cavity of the femur bone.
Histological studies with mice: Histological studies were done with several organs of mice, and the results are presented in FIG. 1.

[12] = time after last dose Up to 48 h
[13] = oral 100 mg/kg/day, last dose day 30
[14] = Table 7, MG 30 mg/kg/day ip 0.5 ml
[15] = Table 7, MG 100 mg/kg/day ip 0.5 ml
[16] = Table 11, MG 30 mg/kg/day ip 0.25 ml
[17] = Table 11, MG 100 mg/kg/day ip 0.25 ml

Which results are given for `CC(=O)C=O` [methylglyoxal]?
abnormalities among the litters (Fertility study): Neither deformation of organs nor any other abnormalities; local reaction to intravenous injections ([1]; intravenous, from 3rd week of the treatment): swelling appeared in the tail and adjoining regions; toxic effect on physical condition and behavioral pattern, death ([1]; multiple dose, observed up to 90 days after treatment): No toxic effect; outcome of pregnancy (teratogenicity) (Teratogenicity study): gave birth to healthy litters; Creatine kinase ([2]; Intravenous): 0.36 ± 0.04 units/ml; Creatine kinase-MB ([2]; Intravenous): 0.18 ± 0.01 units/ml; Hb ([2]; Intravenous): 10.2 ± 0.8 gm/dl; Serum Urea ([2]; Intravenous): 26.3 ± 2.1 mg/dL; Serum alanine transaminase ([2]; Intravenous): 28 ± 1.6 units/ml; Serum alkaline phosphatase ([2]; Intravenous): 41.6 ± 1.2 KA units; Serum aspartate transaminase ([2]; Intravenous): 125 ± 5 units/ml; Serum creatinine ([2]; Intravenous): 0.90 ± 0.02 mg/dL; Serum glucose ([2]; Intravenous): 102 ± 10 mg/dL; Creatine kinase ([2]; Oral): 0.37 ± 0.05 units/ml; Creatine kinase-MB ([2]; Oral): 0.16 ± 0.03 units/ml; Hb ([2]; Oral): 10.4 ± 0.3 gm/dl; Serum Urea ([2]; Oral): 24.3 ± 1.9 mg/dL; Serum alanine transaminase ([2]; Oral): 24 ± 2.5 units/ml; Serum alkaline phosphatase ([2]; Oral): 39.3 ± 1.6 KA units; Serum aspartate transaminase ([2]; Oral): 132 ± 3 units/ml; Serum creatinine ([2]; Oral): 0.82 ± 0.03 mg/dL; Serum glucose ([2]; Oral): 109 ± 6 mg/dL; Hb ([2]; Subcutaneous): 10.35 ± 0.35 gm/dl; Serum Urea ([2]; Subcutaneous): 23.5 ± 1.3 mg/dL; Serum alanine transaminase ([2]; Subcutaneous): 28 ± 2.8 units/ml; Serum alkaline phosphatase ([2]; Subcutaneous): 45.3 ± 1.8 KA units; Serum aspartate transaminase ([2]; Subcutaneous): 141 ± 7 units/ml; Serum creatinine ([2]; Subcutaneous): 0.85 ± 0.03 mg/dL; Serum glucose ([2]; Subcutaneous): 122 ± 3 mg/dL; death [3]: No death; tumor development [4]: no tumor developed; Percent increase in body weight (EAC cells [5]; Table 8, MG 30 mg/kg/day, Day 15): 15.8 ± 1.3%; Percent increase in body weight (EAC cells [5]; Table 8, MG 30 mg/kg/day, Day 20): 19.0 ± 1.6%; Percent increase in body weight (EAC cells [5]; Table 8, MG 30 mg/kg/day, Day 25): 30.0 ± 2.9%; Percent increase in body weight (EAC cells [5]; Table 8, MG 30 mg/kg/day, Day 30): 32.9 ± 3.0%; Percent increase in body weight (EAC cells [5]; Table 8, MG 30 mg/kg/day, Day 35, 2 animals survived out of 6): 38.8 ± 3.0^b %; Percent increase in body weight (EAC cells [5]; Table 8, MG 100 mg/kg/day, Day 15): 8.0 ± 0.7%; Percent increase in body weight (EAC cells [5]; Table 8, MG 100 mg/kg/day, Day 20): 10.0 ± 1.2%; Percent increase in body weight (EAC cells [5]; Table 8, MG 100 mg/kg/day, Day 25): 11.0 ± 1.0%; Percent increase in body weight (EAC cells [5]; Table 8, MG 100 mg/kg/day, Day 30): 11.2 ± 0.9%; Percent increase in body weight (EAC cells [5]; Table 8, MG 100 mg/kg/day, Day 35): 11.2 ± 1.1%; Percent increase in body weight (EAC cells [5]; Table 10, MG 30 mg/kg/day ip, Day 20): 19.0 ± 1.6%; Percent increase in body weight (EAC cells [5]; Table 10, MG 30 mg/kg/day ip, Day 30): 32.9 ± 3.0%; Percent increase in body weight (EAC cells [5]; Table 10, MG 100 mg/kg body weight/day ip, Day 30): 11.2 ± 0.9%; Percent increase in body weight (EAC cells [5]; Table 10, MG 100 mg/kg body weight/day ip, Day 35): 11.2 ± 1.1%; V ([6]; time after last dose 48-120 h): 50.89 L/kg; k ([6]; time after last dose 48-120 h): 0.0231 h − 1; V [6, 12]: 73.90 L/kg; k [6, 12]: 0.0017 h − 1; day from which peak concentration was achieved [6, 13]: three; day on which the basal level was reached [6, 13]: ~35 days; half-life at 30 days ([6]; time after last dose 48-120 h): 1.25 days; half-life at 30 days [6, 12]: 17 days; Percent increase in body weight (EAC cells [7]; MG 30 mg/kg/day ip, Day 15): 15.8 ± 1.3%; Percent increase in body weight (EAC cells [7]; MG 30 mg/kg/day ip, Day 25): 30.0 ± 2.9%; Percent increase in body weight (EAC cells [7]; MG 30 mg/kg/day ip, Day 35, 2 animals survived out of 6): 38.8 ± 3.0^b %; Percent increase in body weight (EAC cells [7]; MG 100 mg/kg body weight/day ip, Day 15): 8.0 ± 0.7%; Percent increase in body weight (EAC cells [7]; MG 100 mg/kg body weight/day ip, Day 20): 10.0 ± 1.2%; Percent increase in body weight (EAC cells [7]; MG 100 mg/kg body weight/day ip, Day 25): 11.0 ± 1.0%; healthy litters per female, on an average [8]: 5; 60 day survivors/15 animals (EAC cells [9]; [14]): 1; ILS value (EAC cells [9]; [14]): 34%; Median survival time (EAC cells [9]; [14]): 26 days; 60 day survivors/15 animals (EAC cells [9]; [15]): 10; ILS value (EAC cells [9]; [15]): Cure; Median survival time (EAC cells [9]; [15]): Indefinite; 60 day survivors/15 animals (EAC cells [9]; [16]): 1; ILS value (Median survival time of (Treated/Control − 1) × 100]) (EAC cells [9]; [16]): 35%; Median survival time (EAC cells [9]; [16]): 27 days; 60 day survivors/15 animals (EAC cells [9]; [17]): 11; ILS value (Median survival time of (Treated/Control − 1) × 100]) (EAC cells [9]; [17]): Cure; Median survival time (EAC cells [9]; [17]): Indefinite; death and toxic effect (physical and behavioral) [10]: No death and toxic effect; histological examination of organs (liver, kidney, spleen, duodenum, bone marrow) [11]: none of the organs tested by histological examination had any adverse effect
